Reference: ChEMBL document CHEMBL1148809, “Biological evaluation, structure-activity relationships, and three-dimensional quantitative structure-activity relationship studies of dihydro-beta-agarofuran sesquiterpenes as modulators of P-glycoprotein-dependent multidrug resistance” (J Med Chem, 2007)
pKi: −log10 of the molar value.

Assays:
[1] = Partition coefficient, log P of the compound; type: physicochemical; conditions: octanol/water
[2] = molecular target: P-gp (ABCB1) (Homo sapiens, UniProt P08183); assay: (§1) Inhibition of human Pgp-mediated DNR transport in NIH3T3 cells by microplate assay; type: cell-based, Mus musculus; conditions: mouse, NIH3T3 cells expressing human P-gp, probe DNR; read-out: Imax
[3] = molecular target: ATP-dependent translocase ABCB1 (Homo sapiens, UniProt P08183); assay: as §1; type: cell-based, Mus musculus; conditions: read-out: Ki
Sequence of ATP-dependent translocase ABCB1 (P08183 whole entry): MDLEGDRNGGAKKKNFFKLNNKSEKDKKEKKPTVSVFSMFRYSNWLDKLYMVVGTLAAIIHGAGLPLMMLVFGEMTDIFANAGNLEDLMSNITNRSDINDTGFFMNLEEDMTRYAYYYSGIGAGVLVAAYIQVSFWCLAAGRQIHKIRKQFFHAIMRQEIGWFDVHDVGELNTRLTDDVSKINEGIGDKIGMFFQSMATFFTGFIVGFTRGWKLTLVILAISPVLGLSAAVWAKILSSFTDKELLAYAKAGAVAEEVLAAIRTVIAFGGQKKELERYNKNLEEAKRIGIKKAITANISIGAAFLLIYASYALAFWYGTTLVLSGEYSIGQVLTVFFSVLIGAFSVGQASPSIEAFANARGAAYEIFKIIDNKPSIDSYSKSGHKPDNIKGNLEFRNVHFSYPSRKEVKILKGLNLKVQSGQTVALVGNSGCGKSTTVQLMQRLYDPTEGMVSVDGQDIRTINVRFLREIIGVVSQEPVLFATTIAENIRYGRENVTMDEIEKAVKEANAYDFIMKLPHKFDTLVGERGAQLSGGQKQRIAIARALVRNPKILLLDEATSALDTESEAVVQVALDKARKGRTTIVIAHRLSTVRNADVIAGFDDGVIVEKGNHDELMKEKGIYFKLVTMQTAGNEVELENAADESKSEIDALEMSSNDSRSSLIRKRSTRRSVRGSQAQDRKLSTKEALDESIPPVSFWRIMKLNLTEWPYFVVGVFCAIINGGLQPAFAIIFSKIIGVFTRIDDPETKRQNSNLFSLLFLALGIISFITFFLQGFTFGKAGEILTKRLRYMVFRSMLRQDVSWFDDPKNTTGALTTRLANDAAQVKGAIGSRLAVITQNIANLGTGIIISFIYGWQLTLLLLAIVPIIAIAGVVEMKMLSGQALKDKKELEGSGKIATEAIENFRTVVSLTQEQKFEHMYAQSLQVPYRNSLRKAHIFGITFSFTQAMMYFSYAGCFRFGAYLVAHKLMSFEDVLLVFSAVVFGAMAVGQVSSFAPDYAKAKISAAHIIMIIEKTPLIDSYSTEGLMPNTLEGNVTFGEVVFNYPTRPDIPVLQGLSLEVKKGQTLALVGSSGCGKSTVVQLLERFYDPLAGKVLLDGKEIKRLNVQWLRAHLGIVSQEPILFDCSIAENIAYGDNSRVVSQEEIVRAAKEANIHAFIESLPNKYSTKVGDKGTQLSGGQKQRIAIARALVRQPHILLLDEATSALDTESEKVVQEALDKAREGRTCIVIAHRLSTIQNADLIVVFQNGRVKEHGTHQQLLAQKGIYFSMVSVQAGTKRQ

Sequence of P-gp (ABCB1) (P08183 whole entry): as above

## CCCCCO[C@H]1C[C@@](C)(O)[C@]23OC(C)(C)[C@H](C[C@H](OC(=O)c4ccco4)[C@]2(C)[C@H]1OC(C)=O)[C@H]3OC(=O)c1ccco1
[1]; read-out: LogP
  logP: 6.6
[2]
  Emax: 95.5%
[3]
  pKi: 6.24

## CC(=O)O[C@H]1[C@@H](OC(=O)c2cccnc2)C[C@@](C)(O)[C@]23OC(C)(C)[C@H](C[C@H](OC(=O)c4ccco4)[C@]12C)[C@H]3OC(=O)c1ccco1
[1]; read-out: LogP
  logP: 6.1
[2]
  Emax: 100%
[3]
  pKi: 5.13

## CC(=O)O[C@H]1C[C@@](C)(O)[C@]23OC(C)(C)[C@H](C[C@H](OC(=O)c4ccco4)[C@]2(C)[C@H]1OC(C)=O)[C@H]3O
[1]; read-out: LogP
  logP: 3.4
[2]
  Emax: 100%
[3]
  pKi: 4.76

## CC(=O)O[C@@H]1[C@H]2C[C@H](OC(=O)c3ccco3)[C@]3(C)[C@@H](OC(C)=O)[C@@H](OC(=O)c4ccco4)C[C@@](C)(O)[C@@]13OC2(C)C
[1]; read-out: LogP
  logP: 5.1
[2]
  Emax: 61.7%
[3]
  pKi: 5.38

## CC(=O)O[C@H]1CC[C@@](C)(O)[C@]23OC(C)(C)[C@H](C[C@H](OC(=O)c4ccco4)[C@]12C)[C@H]3OC(=O)c1ccco1
[1]; read-out: LogP
  logP: 5.3
[2]
  Emax: 96.3%
[3]
  pKi: 5.18

## CC(=O)OC[C@]12[C@H](OC(C)=O)C(=O)[C@@H]3[C@@H](O)[C@]1(OC3(C)C)[C@](C)(O)C[C@H](OC(C)=O)[C@@H]2OC(C)=O
[1]; read-out: LogP
  logP: 3.3
[2]
  Emax: 39%
[3]
  pKi: 5.12

## CC(=O)O[C@H]1[C@@H](O)C[C@@](C)(O)[C@]23OC(C)(C)[C@H](C[C@H](OC(=O)c4ccco4)[C@]12C)[C@H]3OC(=O)c1ccco1
[1]; read-out: LogP
  logP: 4.3
[2]
  Emax: 51.8%
[3]
  pKi: 5.38

## CC(=O)O[C@H]1[C@@H](OC(=O)c2ccco2)C[C@@](C)(O)[C@]23OC(C)(C)[C@H](C[C@H](OC(=O)c4ccco4)[C@]12C)[C@H]3O
[1]; read-out: LogP
  logP: 4.7
[2]
  Emax: 41.2%
[3]
  pKi: 5.26

## CC(=O)O[C@H]1C[C@@](C)(O)[C@]23OC(C)(C)[C@H](C[C@H](OC(=O)c4ccco4)[C@]2(C)[C@H]1O)[C@H]3OC(=O)c1ccco1
[1]; read-out: LogP
  logP: 4.3
[2]
  Emax: 100%
[3]
  pKi: 4.00

## CCCCCCCCCCCC(=O)O[C@@H]1[C@H]2C[C@H](OC(=O)c3ccco3)[C@]3(C)[C@@H](OC(C)=O)[C@@H](OC(C)=O)C[C@@](C)(O)[C@@]13OC2(C)C
[1]
  logP: 9.1
[2]
  Emax: 72.7%
[3]
  pKi: 6.10

## CC(=O)O[C@H]1C[C@@](C)(O)[C@]23OC(C)(C)[C@H](C[C@H](OC(=O)c4ccco4)[C@]2(C)[C@H]1OC(C)=O)[C@H]3OC(=O)c1cccc2ccccc12
[1]; read-out: LogP
  logP: 7.3
[2]
  Emax: 91.1%
[3]
  pKi: 5.78

## CCCO[C@H]1C[C@@](C)(O)[C@]23OC(C)(C)[C@H](C[C@H](OC(=O)c4ccco4)[C@]2(C)[C@H]1OC(C)=O)[C@H]3OC(=O)c1ccco1
[1]; read-out: LogP
  logP: 6.2
[2]
  Emax: 100%
[3]
  pKi: 5.95

## CC(=O)O[C@H]1C[C@@](C)(O)[C@]23OC(C)(C)[C@H](C[C@H](OC(=O)c4ccco4)[C@]2(C)[C@H]1OC(=O)c1ccccc1)[C@H]3OC(=O)c1ccco1
[1]; read-out: LogP
  logP: 7.2
[2]
  Emax: 45.3%
[3]
  pKi: 5.46

## CC(=O)O[C@H]1C[C@@](C)(O)[C@]23OC(C)(C)[C@H](C[C@H](OC(=O)c4ccco4)[C@]2(C)[C@H]1OC(C)=O)[C@H]3OC(=O)C(C)(C)C
[1]; read-out: LogP
  logP: 5
[2]
  Emax: 75.2%
[3]
  pKi: 6.02

## CC(=O)O[C@H]1[C@@H](OC(=O)c2ccccc2)C[C@@](C)(O)[C@]23OC(C)(C)[C@H](C[C@H](OC(=O)c4ccco4)[C@]12C)[C@H]3OC(=O)c1ccco1
[1]; read-out: LogP
  logP: 7.1
[2]
  Emax: 93.1%
[3]
  pKi: 6.15

## CC(=O)O[C@H]1C[C@@](C)(O)[C@]23OC(C)(C)[C@H](C[C@H](OC(=O)c4ccco4)[C@]2(C)[C@H]1OC(C)=O)[C@H]3OC(=O)c1ccco1
[1]; read-out: LogP
  logP: 5.1
[2]
  Emax: 95.7%
[3]
  pKi: 5.54
